Results on 2 molecules are retold here after paper PMC3509773 (The botulinum journal, 2011).

Type in all cases: biochemical
The target in one assay is BoNT/B LC (Clostridium botulinum, UniProt P10844). Conditions: read-out: IC50 BoNT/B LC FRET.
The next assay deals with BaLF (Bacillus anthracis, UniProt P15917). Conditions: read-out: IC50 BaLF FRET.
A further assay concerns the target MMP-1 (Homo sapiens, UniProt P03956). Conditions: read-out: IC50 MMP-1 (FRET assay).
Another assay has as its target MMP-2 (Homo sapiens, UniProt P08253). As to conditions: read-out: IC50 MMP-2 (FRET assay).
Another assay concerns the target MMP-9 (Homo sapiens, UniProt P14780). As to conditions: read-out: IC50 MMP-9 (FRET assay).
The target in another assay is BoNT/A LC (Clostridium botulinum, UniProt P0DPI0).

Structures are written as SMILES. Where only a bound is given, the exact number is not on record here.

BoNT/A LC, sequence (P0DPI0 2-448 limits assumed): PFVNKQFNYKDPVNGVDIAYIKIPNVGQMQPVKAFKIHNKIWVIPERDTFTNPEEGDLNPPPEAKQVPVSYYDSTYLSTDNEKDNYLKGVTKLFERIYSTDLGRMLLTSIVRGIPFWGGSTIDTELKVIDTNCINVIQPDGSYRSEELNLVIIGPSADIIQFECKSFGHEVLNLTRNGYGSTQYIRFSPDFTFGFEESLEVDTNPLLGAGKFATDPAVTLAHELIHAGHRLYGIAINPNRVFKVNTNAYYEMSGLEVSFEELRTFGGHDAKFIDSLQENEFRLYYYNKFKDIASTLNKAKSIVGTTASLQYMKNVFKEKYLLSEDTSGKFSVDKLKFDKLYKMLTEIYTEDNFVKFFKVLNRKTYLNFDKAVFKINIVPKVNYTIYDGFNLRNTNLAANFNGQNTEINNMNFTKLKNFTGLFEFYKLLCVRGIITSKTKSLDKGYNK
BaLF, sequence (P15917 34-809 limits assumed): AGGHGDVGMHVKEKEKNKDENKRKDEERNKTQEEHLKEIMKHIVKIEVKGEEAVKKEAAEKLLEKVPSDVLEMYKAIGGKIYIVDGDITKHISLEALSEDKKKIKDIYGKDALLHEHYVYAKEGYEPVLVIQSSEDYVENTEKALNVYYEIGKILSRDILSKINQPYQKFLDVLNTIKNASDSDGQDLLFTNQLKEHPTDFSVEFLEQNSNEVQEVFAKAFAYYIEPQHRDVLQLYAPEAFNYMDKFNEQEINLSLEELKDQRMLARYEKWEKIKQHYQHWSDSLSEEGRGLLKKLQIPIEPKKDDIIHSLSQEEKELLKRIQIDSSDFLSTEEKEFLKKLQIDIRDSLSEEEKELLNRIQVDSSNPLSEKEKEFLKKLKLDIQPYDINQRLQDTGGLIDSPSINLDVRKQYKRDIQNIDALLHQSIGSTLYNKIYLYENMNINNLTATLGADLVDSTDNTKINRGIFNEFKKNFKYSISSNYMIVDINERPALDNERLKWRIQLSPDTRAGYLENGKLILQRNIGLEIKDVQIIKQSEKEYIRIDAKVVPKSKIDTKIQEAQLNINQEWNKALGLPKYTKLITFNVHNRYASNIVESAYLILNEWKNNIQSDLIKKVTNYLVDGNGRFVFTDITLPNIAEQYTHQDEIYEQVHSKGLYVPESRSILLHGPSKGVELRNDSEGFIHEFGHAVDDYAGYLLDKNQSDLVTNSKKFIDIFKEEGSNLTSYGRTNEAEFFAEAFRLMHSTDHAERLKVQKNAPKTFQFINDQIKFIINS
MMP-1, sequence (P03956 100-469): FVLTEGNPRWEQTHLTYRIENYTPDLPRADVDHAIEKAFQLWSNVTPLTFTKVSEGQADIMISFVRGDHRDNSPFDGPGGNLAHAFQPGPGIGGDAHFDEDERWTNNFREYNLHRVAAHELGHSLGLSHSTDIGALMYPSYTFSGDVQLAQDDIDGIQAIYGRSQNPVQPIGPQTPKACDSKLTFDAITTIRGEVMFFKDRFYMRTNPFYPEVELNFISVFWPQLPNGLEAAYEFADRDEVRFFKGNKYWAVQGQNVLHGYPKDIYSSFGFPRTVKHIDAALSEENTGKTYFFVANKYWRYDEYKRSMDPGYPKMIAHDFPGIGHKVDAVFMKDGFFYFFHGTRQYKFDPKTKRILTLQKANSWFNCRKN
MMP-9, sequence (P14780 94-707): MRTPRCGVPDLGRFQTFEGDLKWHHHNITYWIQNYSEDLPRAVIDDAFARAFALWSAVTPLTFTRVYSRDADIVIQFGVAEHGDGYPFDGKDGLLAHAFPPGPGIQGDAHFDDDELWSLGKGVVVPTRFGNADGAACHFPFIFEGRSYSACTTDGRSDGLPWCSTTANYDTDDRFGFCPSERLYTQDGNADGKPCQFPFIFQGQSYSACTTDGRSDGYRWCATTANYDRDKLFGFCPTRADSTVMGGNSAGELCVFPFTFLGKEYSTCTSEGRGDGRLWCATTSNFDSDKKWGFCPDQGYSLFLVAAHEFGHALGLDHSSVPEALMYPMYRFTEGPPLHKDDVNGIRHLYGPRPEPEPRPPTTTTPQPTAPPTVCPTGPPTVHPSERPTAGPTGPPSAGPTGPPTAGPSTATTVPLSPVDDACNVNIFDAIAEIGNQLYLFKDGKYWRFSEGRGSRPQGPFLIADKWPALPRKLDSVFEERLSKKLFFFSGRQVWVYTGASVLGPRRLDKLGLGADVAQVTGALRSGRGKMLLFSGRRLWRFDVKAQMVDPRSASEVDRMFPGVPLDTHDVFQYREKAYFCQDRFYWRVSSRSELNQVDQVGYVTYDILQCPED
MMP-2, sequence (P08253 110-660): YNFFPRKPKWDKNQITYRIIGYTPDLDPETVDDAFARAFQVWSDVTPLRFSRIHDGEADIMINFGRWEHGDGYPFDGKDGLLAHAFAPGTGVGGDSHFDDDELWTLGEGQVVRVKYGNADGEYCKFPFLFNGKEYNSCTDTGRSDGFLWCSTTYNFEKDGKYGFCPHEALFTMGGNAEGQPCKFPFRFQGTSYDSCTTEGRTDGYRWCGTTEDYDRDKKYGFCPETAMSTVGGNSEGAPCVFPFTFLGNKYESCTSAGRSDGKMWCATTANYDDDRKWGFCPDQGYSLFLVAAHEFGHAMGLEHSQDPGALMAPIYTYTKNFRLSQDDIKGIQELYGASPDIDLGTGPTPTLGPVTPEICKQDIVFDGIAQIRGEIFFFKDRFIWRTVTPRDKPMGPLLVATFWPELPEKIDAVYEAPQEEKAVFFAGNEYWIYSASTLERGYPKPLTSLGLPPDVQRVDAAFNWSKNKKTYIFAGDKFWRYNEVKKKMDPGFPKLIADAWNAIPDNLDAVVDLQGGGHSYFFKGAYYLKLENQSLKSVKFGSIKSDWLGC
BoNT/B LC, sequence (P10844 2-441 limits assumed): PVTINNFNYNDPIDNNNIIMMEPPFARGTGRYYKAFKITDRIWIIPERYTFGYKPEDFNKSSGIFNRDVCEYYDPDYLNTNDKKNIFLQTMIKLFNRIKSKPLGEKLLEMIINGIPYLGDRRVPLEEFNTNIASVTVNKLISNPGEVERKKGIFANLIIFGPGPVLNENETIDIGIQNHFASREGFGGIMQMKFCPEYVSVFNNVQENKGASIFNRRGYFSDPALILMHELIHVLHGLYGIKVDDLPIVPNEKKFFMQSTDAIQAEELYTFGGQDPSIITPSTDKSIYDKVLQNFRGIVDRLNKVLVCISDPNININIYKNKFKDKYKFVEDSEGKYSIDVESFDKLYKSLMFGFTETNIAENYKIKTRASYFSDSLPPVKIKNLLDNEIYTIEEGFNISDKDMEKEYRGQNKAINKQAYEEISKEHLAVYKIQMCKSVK

As for `O=C(C=Cc1ccc(Cl)cc1Cl)NO` [Hydroxamate, N-Hydroxy-2,4-dichlorocinnanamide], the IC50 on BoNT/B LC, at BaLF, at MMP-1, at MMP-2 and at MMP-9 was over 100 µM in each case.
In the case of `[Cl-].[Cl-].[Zn+2]` [zinc chloride], the “inhibition of BoNT/A LC activity” value against BoNT/A LC is 4–5%.
